Experiments:
Type in all cases: in vivo, human
[1] = test system: patients with acute ischemic stroke or high-risk TIA; assay: AXIOMATIC-SSP primary efficacy: composite of new clinical ischemic stroke during treatment and new covert brain infarction detected by MRI on Day 90; conditions: modified ITT
Experimental: The main objective is to determine the dose-response relationship of milvexian in participants with acute ischemic stroke or TIA who are treated with aspirin and clopidogrel. The main secondary objective is to assess the rate of major bleeding in this population compared with placebo.
(§1) The primary efficacy endpoint was the composite of incident ischemic stroke during the treatment period or new covert brain infarction detected by the comparison of 90-day and baseline MRIs. All images were read independently by 2 blinded neuroradiologists, and disagreements were resolved by consensus. […] Clinically overt strokes were determined by site investigators following standardized definitions. Briefly, to qualify as an outcome event, a clinical diagnosis of stroke required a sustained increase in the NIHSS score of ≥3 points that was not explained by other factors, such as infection, or was confirmed by imaging as a new infarct. Covert brain infarction is defined as small ischemic cerebral lesions that are detected on Day 90 MRI in the absence of a symptomatic ischemic stroke event.
All randomized participants will be included in the analysis of the primary endpoint if they have either a symptomatic ischemic stroke event by day 90 or an evaluable MRI at the day 90 visit. Because of the COVID-19 pandemic, all day 90 visit MRIs will be included in the primary analysis, regardless of timing. All other efficacy analyses will be performed on a randomized (intent-to-treat, ITT) population up to day 90.
The population for the primary efficacy endpoint analysis include all randomized participants who have (i) a primary endpoint event (a new ischemic stroke during the study period or a new covert brain infarction detected by MRI on Day 90) or (ii) an evaluable MRI image on Day 90.
The primary efficacy outcome was to assess dose response for the composite of new clinical ischemic stroke during treatment and new covert brain infarction detected by MRI on Day 90 in a modified ITT population (those participants with either a clinical ischemic stroke or a Day 90 MRI).

[2] = test system: patients with acute ischemic stroke or high-risk TIA; assay: AXIOMATIC-SSP clinical (symptomatic) ischemic stroke and undetermined stroke events, all randomized participants
Experimental: as §1, with “event. […]” for “event.”

[3] = test system: patients with acute ischemic stroke or high-risk TIA; assay: AXIOMATIC-SSP composite of new ischemic stroke, MI and all-cause death; conditions: up to Day 90
From the text: Event rates of the composite of new ischemic non-fatal stroke, non-fatal myocardial infarction, or all-cause death.

## C[C@@H]1CCC[C@H](n2cnc(-c3cc(Cl)ccc3-n3cc(Cl)nn3)cc2=O)c2cc(ccn2)-c2c(cnn2C(F)F)NC1=O [milvexian, (5R,9S)-9-(4-(5-chloro-2-(4-chloro-1H-1,2,3-triazol-1-yl)phenyl)-6-oxopyrimidin-1(6H)-yl)-21-(difluoromethyl)-5-methyl-21H-3-aza-1(4,2)-pyridina-2(5,4)-pyrazolacyclonaphan-4-one]
[1]; 25 mg once daily
  incidence rate (n/N %) of composite of new clinical ischemic stroke and new covert brain infarction detected by MRI on Day 90: 16.2%
[1]; 25 mg twice daily
  incidence rate (n/N %) of composite of new clinical ischemic stroke and new covert brain infarction detected by MRI on Day 90: 18.5%
[1]; 50 mg twice daily
  incidence rate (n/N %) of composite of new clinical ischemic stroke and new covert brain infarction detected by MRI on Day 90: 14.1%
[1]; 100 mg twice daily
  incidence rate (n/N %) of composite of new clinical ischemic stroke and new covert brain infarction detected by MRI on Day 90: 14.7%
[1]; 200 mg twice daily
  incidence rate (n/N %) of composite of new clinical ischemic stroke and new covert brain infarction detected by MRI on Day 90: 16.4%
[2]; 25 mg BID, N = 318
  Subjects With Hemorragic Stroke n: 0
  Subjects With Hemorragic Stroke, Incidence Rate (n/N %): (0) %
  Subjects With Undetermined Stroke, Incidence Rate (n/N %): (0) %
  Symptomatic Stroke Events: Subjects With Event, Incidence Rate (n/N %): (3.8) %
[2]; 25 mg QD, N = 328
  Subjects With Hemorragic Stroke n: 0
  Subjects With Hemorragic Stroke, Incidence Rate (n/N %): (0) %
  Subjects With Ischemic Stroke n: 15
  Subjects With Undetermined Stroke, Incidence Rate (n/N %): (0) %
  Symptomatic Stroke Events: Subjects With Event n: 15
  Symptomatic Stroke Events: Subjects With Event, Incidence Rate (n/N %): (4.6) %
[2]; 25 mg twice daily, 95% CI 0.36-1.30
  HR for preventing clinical ischemic strokes vs placebo: 0.69
[2]; 50 mg BID, N = 328
  Subjects With Hemorragic Stroke n: 0
  Subjects With Hemorragic Stroke, Incidence Rate (n/N %): (0) %
  Subjects With Undetermined Stroke, Incidence Rate (n/N %): (0) %
  Symptomatic Stroke Events: Subjects With Event, Incidence Rate (n/N %): (4.0) %
[2]; 100 mg BID, N = 310
  Subjects With Hemorragic Stroke n: 0
  Subjects With Hemorragic Stroke, Incidence Rate (n/N %): (0) %
  Subjects With Undetermined Stroke, Incidence Rate (n/N %): (0) %
  Symptomatic Stroke Events: Subjects With Event, Incidence Rate (n/N %): (3.5) %
[2]; 200 mg BID, N = 351
  Subjects With Hemorragic Stroke n: 0
  Subjects With Hemorragic Stroke, Incidence Rate (n/N %): (0) %
  Subjects With Undetermined Stroke, Incidence Rate (n/N %): (0) %
  Symptomatic Stroke Events: Subjects With Event, Incidence Rate (n/N %): (7.7) %
[2]; pooled doses of milvexian
  time point for apparent onset of the clinical benefit vs placebo (Kaplan-Meier, time to ischemic stroke): about 10 days
[3]; 25 mg BID, N = 318
  All Cause Death (%): (0.9) %
  All Cause Death, subjects n: 3
  Myocardial Infarction (%): (0.6) %
  Myocardial Infarction, subjects n: 2
  New Ischemic Stroke, MI And All Cause Death: Subjects With Event (%): (4.7) %
[3]; 25 mg QD, N = 328
  All Cause Death (%): (0.9) %
  All Cause Death, subjects n: 3
  Myocardial Infarction (%): (0.3) %
  Myocardial Infarction, subjects n: 1
  New Ischemic Stroke, MI And All Cause Death: Subjects With Event (%): (5.2) %
[3]; 50 mg BID, N = 328
  All Cause Death (%): (0.6) %
  All Cause Death, subjects n: 2
  Myocardial Infarction (%): (0.3) %

Reference: patent US20260034130A1 (priority 2022, published 2026)
